Tested on: Staphylococcus aureus
Assay: Microorganism kill against airborne Staphylococcus aureus, pre and post filtration
Type: cell-based
Settings: TEG pipetted onto hotplate @ 250° C.

Compound: OCCOCCOCCO [TEG, triethylene glycol]
- Microorganism kill against Staphylococcus aureus (log10 reduction) (Post-Filtration): 3 log10 reduction
- Microorganism kill against Staphylococcus aureus, time to 3 log10 reduction (Post-Filtration): in 33 min
- Microorganism kill against Staphylococcus aureus (log10 reduction) (Pre-Filtration): 3 log10 reduction
- Microorganism kill against Staphylococcus aureus, time to 3 log10 reduction (Pre-Filtration): in 18.2 min
